The target in this assay is T1, human PAH with the R408W mutation (Homo sapiens, UniProt P00439, R408W).
T1 construct: expressed in transfected cells
T1 sequence (P00439 1-452 R408W): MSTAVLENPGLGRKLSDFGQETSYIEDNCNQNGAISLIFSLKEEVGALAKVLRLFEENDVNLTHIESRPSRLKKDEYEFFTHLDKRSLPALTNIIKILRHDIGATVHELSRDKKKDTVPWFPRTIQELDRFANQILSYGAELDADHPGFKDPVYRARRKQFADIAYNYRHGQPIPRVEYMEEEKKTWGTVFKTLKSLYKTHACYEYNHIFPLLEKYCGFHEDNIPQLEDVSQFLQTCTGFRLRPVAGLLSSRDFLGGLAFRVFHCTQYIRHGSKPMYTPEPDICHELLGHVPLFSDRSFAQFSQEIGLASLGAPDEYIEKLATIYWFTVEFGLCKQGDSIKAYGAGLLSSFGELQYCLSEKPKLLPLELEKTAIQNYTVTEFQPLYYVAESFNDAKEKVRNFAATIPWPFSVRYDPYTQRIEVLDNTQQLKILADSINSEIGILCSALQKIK
Briefly: Cell Based Phenylalanine Flux Assay.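 Also: after compound treatment, cells received sepiapterin plus isotope-labelled Phenylalanine for 4 hours, then labelled Tyrosine in the medium was quantified, 10-point 2-fold dilution series run in duplicate.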 The following applies: A375 cells expressing human PAH R408W; 24 hrs compound incubation; 13C-Tyrosine by LC-MS; average where tested multiple times; read-out: AC50.

Results on 24 compounds are retold here after patent US20230365592A1 (Agios Pharmaceuticals, Inc., priority 2022, published 2023).

With `CC(C)(O)c1nc(C(F)F)c(C(=O)N2CCc3[nH]cnc3[C@H]2c2cc3cc(C(F)(F)F)ccn3n2)o1` [Example 2406, (S)-(4-(difluoromethyl)-2-(2-hydroxypropan-2-yl)oxazol-5-yl)(4-(5-(trifluoromethyl)pyrazolo[1,5-a]pyridin-2-yl)-6,7-dihydro-1H-imidazo[4,5-c]pyridin-5(4H)-yl)methanone], the AC50 is below 500 nM.
With `CC(C)(C)c1nnc(C(=O)N2CCc3[nH]cnc3[C@H]2c2cc3cccc(C(F)(F)F)n3n2)o1` [Example 2409, (S)-(5-(tert-butyl)-1,3,4-oxadiazol-2-yl)(4-(7-(trifluoromethyl)pyrazolo[1,5-a]pyridin-2-yl)-6,7-dihydro-1H-imidazo[4,5-c]pyridin-5(4H)-yl)methanone], the AC50 was in the range of 1000 to 5000 nM.
In the case of `Cn1nc(C(F)F)nc1C(=O)N1CCc2[nH]cnc2[C@H]1c1cc2cc(C(F)(F)F)ccn2n1` [Example 2410, (S)-(3-(difluoromethyl)-1-methyl-1H-1,2,4-triazol-5-yl)(4-(5-(trifluoromethyl)pyrazolo[1,5-a]pyridin-2-yl)-6,7-dihydro-1H-imidazo[4,5-c]pyridin-5(4H)-yl)methanone], the AC50 lay within 500 to 1000 nM.
Under `Cn1nc(C(F)(F)F)nc1C(=O)N1CCc2[nH]cnc2[C@H]1c1cc2cccc(Cl)n2n1` [Example 2412, (S)-(4-(7-chloropyrazolo[1,5-a]pyridin-2-yl)-6,7-dihydro-1H-imidazo[4,5-c]pyridin-5(4H)-yl)(1-methyl-3-(trifluoromethyl)-1H-1,2,4-triazol-5-yl)methanone] stands 1000 to 5000 nM; under `O=C(c1nnc(-c2ccccn2)o1)N1CCc2[nH]cnc2[C@H]1c1cc2ccc(C(F)(F)F)cn2n1` [Example 2414, (S)-(5-(pyridin-2-yl)-1,3,4-oxadiazol-2-yl)(4-(6-(trifluoromethyl)pyrazolo[1,5-a]pyridin-2-yl)-6,7-dihydro-1H-imidazo[4,5-c]pyridin-5(4H)-yl)methanone], 1000 to 5000 nM; under `O=C(c1nnc(-c2ccccn2)o1)N1CCc2[nH]cnc2[C@@H]1c1cc2ccc(C(F)(F)F)cn2n1` [Example 2415, (R)-(5-(pyridin-2-yl)-1,3,4-oxadiazol-2-yl)(4-(6-(trifluoromethyl)pyrazolo[1,5-a]pyridin-2-yl)-6,7-dihydro-1H-imidazo[4,5-c]pyridin-5(4H)-yl)methanone], 1000 to 5000 nM.
For `Cn1cc(-c2nnc(C(=O)N3CCc4[nH]cnc4[C@@H]3c3cc4ccc(C(F)(F)F)cn4n3)o2)cn1` [Example 2417, (R)-(5-(1-methyl-1H-pyrazol-4-yl)-1,3,4-oxadiazol-2-yl)(4-(6-(trifluoromethyl)pyrazolo[1,5-a]pyridin-2-yl)-6,7-dihydro-1H-imidazo[4,5-c]pyridin-5(4H)-yl)methanone] the value was 1000 to 5000 nM.
Turning to `Cn1nc(C2CC2)nc1C(=O)N1CCc2[nH]cnc2[C@H]1c1cc2cccc(C(F)(F)F)n2n1` [Example 2419, (S)-(3-cyclopropyl-1-methyl-1H-1,2,4-triazol-5-yl)(4-(7-(trifluoromethyl)pyrazolo[1,5-a]pyridin-2-yl)-6,7-dihydro-1H-imidazo[4,5-c]pyridin-5(4H)-yl)methanone], the AC50 was in the range of 1000 to 5000 nM.
For `CC(C)(F)c1nnc(C(=O)N2CCc3[nH]cnc3[C@H]2c2cc3ccc(C(F)(F)F)cn3n2)o1` [Example 2420, (S)-(5-(2-fluoropropan-2-yl)-1,3,4-oxadiazol-2-yl)(4-(6-(trifluoromethyl)pyrazolo[1,5-a]pyridin-2-yl)-6,7-dihydro-1H-imidazo[4,5-c]pyridin-5(4H)-yl)methanone] the value was 1000 to 5000 nM; for `CC(C)(F)c1nnc(C(=O)N2CCc3[nH]cnc3[C@@H]2c2cc3ccc(C(F)(F)F)cn3n2)o1` [Example 2421, (R)-(5-(2-fluoropropan-2-yl)-1,3,4-oxadiazol-2-yl)(4-(6-(trifluoromethyl)pyrazolo[1,5-a]pyridin-2-yl)-6,7-dihydro-1H-imidazo[4,5-c]pyridin-5(4H)-yl)methanone], 1000 to 5000 nM; for `Cc1nc([C@H](C)O)oc1C(=O)N1CCc2[nH]cnc2[C@H]1c1cc2cccc(C(F)(F)F)n2n1` [Example 2422, (2-((S)-1-hydroxyethyl)-4-methyloxazol-5-yl)((S)-4-(7-(trifluoromethyl)pyrazolo[1,5-a]pyridin-2-yl)-6,7-dihydro-1H-imidazo[4,5-c]pyridin-5(4H)-yl)methanone], 1000 to 5000 nM.
In the case of `O=C(c1cnn2ccccc12)N1CCc2[nH]cnc2[C@H]1c1cc2cccc(Cl)n2n1` [Example 2424, (S)-(4-(7-chloropyrazolo[1,5-a]pyridin-2-yl)-6,7-dihydro-1H-imidazo[4,5-c]pyridin-5(4H)-yl)(pyrazolo[1,5-a]pyridin-3-yl)methanone], the AC50 was 1000 to 5000 nM.
Turning to `O=C(c1nnc(-c2cnn(C(F)(F)F)c2)o1)N1CCc2[nH]cnc2[C@H]1c1cc2ccccn2n1` [Example 2426, (S)-(4-(pyrazolo[1,5-a]pyridin-2-yl)-6,7-dihydro-1H-imidazo[4,5-c]pyridin-5(4H)-yl)(5-(1-(trifluoromethyl)-1H-pyrazol-4-yl)-1,3,4-oxadiazol-2-yl)methanone], the AC50 fell in the range of 1000 to 5000 nM.
Take `O=C(c1nnc(-c2cnn(C(F)(F)F)c2)o1)N1CCc2[nH]cnc2[C@@H]1c1cc2ccccn2n1` [Example 2427, (R)-(4-(pyrazolo[1,5-a]pyridin-2-yl)-6,7-dihydro-1H-imidazo[4,5-c]pyridin-5(4H)-yl)(5-(1-(trifluoromethyl)-1H-pyrazol-4-yl)-1,3,4-oxadiazol-2-yl)methanone]: the AC50 is above 5000 nM.
As to `O=C(c1nnc(-c2cnn(C(F)(F)F)c2)o1)N1CCc2[nH]cnc2[C@@H]1c1cc2cccc(C(F)(F)F)n2n1` [Example 2429, (R)-(5-(1-(trifluoromethyl)-1H-pyrazol-4-yl)-1,3,4-oxadiazol-2-yl)(4-(7-(trifluoromethyl)pyrazolo[1,5-a]pyridin-2-yl)-6,7-dihydro-1H-imidazo[4,5-c]pyridin-5(4H)-yl)methanone], the AC50 was in the range of 1000 to 5000 nM.
For the compound `O=C(c1nnc(C2CCC2)o1)N1CCc2[nH]cnc2[C@H]1c1cc2cccc(C(F)(F)F)n2n1` [Example 2430, (S)-(5-cyclobutyl-1,3,4-oxadiazol-2-yl)(4-(7-(trifluoromethyl)pyrazolo[1,5-a]pyridin-2-yl)-6,7-dihydro-1H-imidazo[4,5-c]pyridin-5(4H)-yl)methanone], the AC50 fell in the range of 1000 to 5000 nM.
For `O=C(c1nnc(C2CCC2)o1)N1CCc2[nH]cnc2[C@@H]1c1cc2cccc(C(F)(F)F)n2n1` [Example 2431, (R)-(5-cyclobutyl-1,3,4-oxadiazol-2-yl)(4-(7-(trifluoromethyl)pyrazolo[1,5-a]pyridin-2-yl)-6,7-dihydro-1H-imidazo[4,5-c]pyridin-5(4H)-yl)methanone] the value was 1000 to 5000 nM.
For `Fc1cccn2nc([C@@H]3c4nc[nH]c4CCN3c3nnc(C4CC4)o3)cc12` [Example 2433, (S)-2-cyclopropyl-5-(4-(4-fluoropyrazolo[1,5-a]pyridin-2-yl)-6,7-dihydro-1H-imidazo[4,5-c]pyridin-5(4H)-yl)-1,3,4-oxadiazole], the AC50 was 1000 to 5000 nM.
Under `Cn1cc(-c2ccc3c(C(=O)N4CCc5[nH]cnc5[C@H]4c4cc5c(F)cccn5n4)cnn3c2)cn1` [Example 2434, (S)-(4-(4-fluoropyrazolo[1,5-a]pyridin-2-yl)-6,7-dihydro-1H-imidazo[4,5-c]pyridin-5(4H)-yl)(6-(1-methyl-1H-pyrazol-4-yl)pyrazolo[1,5-a]pyridin-3-yl)methanone] stands 1000 to 5000 nM.
Under `Cn1cc(-c2ccc3c(C(=O)N4CCc5[nH]cnc5[C@@H]4c4cc5c(F)cccn5n4)cnn3c2)cn1` [Example 2435, (R)-(4-(4-fluoropyrazolo[1,5-a]pyridin-2-yl)-6,7-dihydro-1H-imidazo[4,5-c]pyridin-5(4H)-yl)(6-(1-methyl-1H-pyrazol-4-yl)pyrazolo[1,5-a]pyridin-3-yl)methanone] stands above 5000 nM; under `COCc1ccc2c(C(=O)N3CCc4[nH]cnc4[C@H]3c3cc4c(C)cccn4n3)cnn2c1` [Example 2436, (S)-(6-(methoxymethyl)pyrazolo[1,5-a]pyridin-3-yl)(4-(4-methylpyrazolo[1,5-a]pyridin-2-yl)-6,7-dihydro-1H-imidazo[4,5-c]pyridin-5(4H)-yl)methanone], 1000 to 5000 nM.
As for `COCc1ccc2c(C(=O)N3CCc4[nH]cnc4[C@@H]3c3cc4c(C)cccn4n3)cnn2c1` [Example 2437, (R)-(6-(methoxymethyl)pyrazolo[1,5-a]pyridin-3-yl)(4-(4-methylpyrazolo[1,5-a]pyridin-2-yl)-6,7-dihydro-1H-imidazo[4,5-c]pyridin-5(4H)-yl)methanone], the AC50 is above 5000 nM.
On to `Cn1cc(-c2ccc3c(C(=O)N4CCc5[nH]cnc5[C@H]4c4cc5cccc(C(F)(F)F)n5n4)cnn3c2)cn1` [Example 2438, (S)-(6-(1-methyl-1H-pyrazol-4-yl)pyrazolo[1,5-a]pyridin-3-yl)(4-(7-(trifluoromethyl)pyrazolo[1,5-a]pyridin-2-yl)-6,7-dihydro-1H-imidazo[4,5-c]pyridin-5(4H)-yl)methanone], for which the AC50 was in the range of 1000 to 5000 nM.
Under `FC(F)(F)c1cccc2cc([C@@H]3c4nc[nH]c4CCN3c3nnc(-c4ccccn4)o3)nn12` [Example 2440, (S)-2-(pyridin-2-yl)-5-(4-(7-(trifluoromethyl)pyrazolo[1,5-a]pyridin-2-yl)-6,7-dihydro-1H-imidazo[4,5-c]pyridin-5(4H)-yl)-1,3,4-oxadiazole] stands 1000 to 5000 nM.

For orientation: AC50 means the concentration at which the activity in the assay is half-maximal.
